Assay results published in patent US20120295844A1, “USE OF APROTININ FOR TREATING PARASITIC INFECTIONS AND PROGNOSING BOVINE TRYPANOTOLERANCE” (priority 2010, published 2012).

How the values were obtained:
[1] = tested on: NO production by bovine macrophages; assay: NO production inhibition by bovine macrophages derived from circulating monocytes; assay type: cell-based; conditions: LPS + bovine IFNg
Experimental: (§1) Two different vials of the J774.2 line were used at the 8th and 9th passages. The cells from these vials were placed in culture in parallel, and the tests were triplicated. The cells were first stimulated with Lipopolysaccharide (LPS, InvivoGen) at a concentration of 100 ng/ml and with mouse interferon gamma (IDNγ, AbD serotex) at a final concentration of 10 ng/ml and incubated in the absence (control) or in the presence of various concentrations of BPTI (range of 12.5 to 100 μM) for 15 hours at 37° C./5% CO2 in a complete medium containing DMEM glutamax (Gibco) supplemented with 10% foetal calf serum (FCS) and 1% penicillin/streptamycin. The quantity of NO produced was determined by means of a colorimetric assay according to the Griess principle (Pinelli et al., Vet. Parasitol., 2000, 92: 181-189). For each BPTI concentration, NO production inhibition percentage is calculated according to the following formula: […]
Bovine monocytes were isolated from circulating monocytes. Two independent tests were performed and each of the tests was triplicated. The monocytes were stimulated with LPS at a concentration of 250 ng/ml and bovine IFNg at a final concentration of 10 ng/ml. The cells were then incubated in the absence ([…]) for 20 hours (test 1) and 24 hours (test 2) at 37° C./5% CO2 in IMDM complete medium containing IMDM supplemented with L-glutamine at […] final, gentamicin at 50 μg/ml final, 10% FCS and 5×10^−5 M b-mercaptoethanol.

[2] = tested on: NO production by RAW 264.7 macrophage line cells; assay: NO production inhibition by RAW 264.7 macrophage line (Griess assay); assay type: cell-based, mouse; conditions: LPS + IFNγ stimulated RAW 264.7 cells
Experimental: as §1
Two different vials of the RAW 264.7 line were used at the 10th and 11th passages. The cells from these vials were placed in culture in parallel, and the tests were triplicated and performed as described above.

[3] = tested on: "trypsin-like" (serine protease) in Leishmania donovani infantum (Ldi) lysates; assay: BAPNA degradation by Leishmania donovani infantum (Ldi) lysates; assay type: biochemical; conditions: BPTI 625 μg; lysate alone 2.893
Experimental: (§2) The parasites were placed in rodent culture and purified on a DEAE cellulose column. The parasites were then counted, and lysed by means of 4 successive 1-minute passages in liquid nitrogen and in a water-bath at 37° C. The tests were conducted on three independent procedures in triplicate using […]. The method used for detecting “trypsin-like” (serine protease) consists of measuring, as a function of time, the initial degradation rate of a homogeneous substrate, N-benzoyl-ariginine-p-nitroaniline (BAPNA), under the effect of “trypsin-like” found in lysates in the presence of absence of BPTI. The appearance of the degradation product, p-nitroalinine (p-Na), which is yellow in colour, is measured by means of spectrophotometry at 405 nm. The enzyme activity calculation is performed according to the Beer-Lambert law.
(§3) Leishmania (Ldi and Ldd8) were placed in culture in RMPI supplemented with 10% FCS, 1% penicillin/streptomycin and 1% Ultraglutamine and placed in an incubator) 37° C./5% CO2 for one week. The leishmania are counted and lysed according to the protocol defined for trypanosome lysis. The method for detecting and the method for calculating the enzyme activity were identical to those used for trypanosomes. The tests using Ldi and Ldd8 were conducted on three independent procedures in triplicate using […].

[4] = tested on: Leishmania donovani infantum (Ldi); assay: Viability and growth of Leishmania donovani infantum (Ldi) cultured in vitro (FACS); assay type: cell-based; conditions: BPTI 50, 100, 200 μM
Experimental: The growth and viability of Leismania donovani infantum parasites were measured by FACS at 4, 12, 24, 48, 72, 144 and 168 hours of culture after addition of BPTI at concentrations of 50, 100 and 200 μM. The results are presented in graphs A and B in FIG. 10.
The effect of BPTI was tested for each time value with a non-parametric test (Kruskal-Wallis test).

[5] = tested on: NO production by J774.2 macrophage line cells; assay: NO production inhibition by J774.2 macrophage line (Griess assay); assay type: cell-based, mouse; conditions: LPS + IFNγ stimulated J774.2 cells, 15 hours
Experimental: as §1

[6] = tested on: "trypsin-like" (serine protease) in Leishmania donovani donovani (Ldd8) lysates; assay: BAPNA degradation by Leishmania donovani donovani (Ldd8) lysates; assay type: biochemical; conditions: BPTI 625 μg; lysate alone 1.767
Experimental: as §2, §3

[7] = tested on: "trypsin-like" (serine protease) in Trypanosoma congolense (Tc. IL1180) lysates; assay: BAPNA degradation by Trypanosoma congolense (Tc. IL1180) lysates; assay type: biochemical; conditions: BPTI 3.125 mg/ml or 481.25 μM or 625 μg/well, BAPNA 0.315 mM
Experimental: as §2

[8] = tested on: Trypanosoma congolense IL1180; assay: Viability of Trypanosoma congolense IL1180 cultured in vitro (FACS, microscopy); assay type: cell-based; conditions: for mortality induced by BPTI (natural mortality subtracted): 48 hours
Experimental: Before adding BPTI and for measurement times: 1.5 hours, 17 hours and 24 hours, the parasites (Trypanosoma congolense IL1180) are clearly visible; their form is as expected (fusiform), and they are mobile. However, the mortality becomes increasingly visible over time. The impact of BPTI on morphology is perceptible 17 hours (and thereafter) after adding BPTI to the culture. […] In order to analyze the effect of BPTI on parasite viability, flow cytometry measurements were made at different times (1.5 hours, 17 hours, 24 hours and 48 hours after adding 100 μM or 200 μM of BPTI for parasite concentrations of 5×10^6 parasites/ml and 10×10^6 parasites/ml). The results obtained are represented in graphs A and B in FIG. 7. There is a “natural” mortality of Trypanosoma congolense in vitro, due to the difficulty maintaining sanguicolous forms of Trypanosoma congolense in liquid culture. This mortality increases over time and reaches values of 49.1% and 47.1% under conditions using 5.10^6 parasites/ml and 10.10^6 parasites/ml, respectively. However, a trypanocidal action of BPTI may be observed on trypanosome cultures, a slight dose-dependent effect of BPTI on parasite viability may be recorded. The effect of BPTI is extremely significant and appears to be also time-dependent. […] The mortality induced by BPTI on a population of 5×10^6 trypanosomes (10×10^6 parasites/ml) under the same conditions is 49.6% and 48.8%, respectively (see graphs A and B in FIG. 8).

aprotinin [BPTI]
mean inhibition of NO production ([1]; Test 1, 20 hours, BPTI 12.5 μM): 8.4% | mean inhibition of NO production ([1]; Test 1, 20 hours, BPTI 25 μM): 14.2% | mean inhibition of NO production ([1]; Test 1, 20 hours, BPTI 50 μM): 32.6% | mean inhibition of NO production ([1]; Test 1, 20 hours, BPTI 100 μM): 70.5% | mean inhibition of NO production ([1]; Test 2, 24 hours, BPTI 6.25 μM): 12% | mean inhibition of NO production ([1]; Test 2, 24 hours, BPTI 12.5 μM): 25.9% | mean inhibition of NO production ([1]; Test 2, 24 hours, BPTI 25 μM): 62.5% | mean inhibition of NO production ([1]; Test 2, 24 hours, BPTI 50 μM): 70% | mean inhibition of NO production ([1]; Test 2, 24 hours, BPTI 100 μM): 60.2% | NO production inhibition ([2]; BPTI 12.5 μM): NO inhibition was observed | NO production inhibition ([2]; BPTI 25 μM): 0.2% | NO production inhibition ([2]; BPTI 50 μM): 16.1% | NO production inhibition ([2]; BPTI 100 μM): 47.6% | lysate enzyme activity with BPTI [3]: 1.555 | effect on the viability of leishmania (Kruskal-Wallis test) ([4]; 72 hours, P-value=0.05): at the limit of significance | effect on the viability of leishmania (Kruskal-Wallis test) ([4]; 144 hours, P-value=0.05): significant effect | effect on the number of leishmania (growth, Kruskal-Wallis test) ([4]; 168 hours only, P-value=0.03): significant effect | effect on the viability of leishmania (Kruskal-Wallis test) ([4]; 168 hours, P-value=0.03): significant effect | effect on the viability of leishmania (Kruskal-Wallis test) ([4]; other observation times (4, 12, 24, 48 hours)): not significant | NO production inhibition ([5]; BPTI 12.5 μM): 1.7% | NO production inhibition ([5]; BPTI 25 μM): 16.2% | NO production inhibition ([5]; BPTI 50 μM): 30.1% | NO production inhibition ([5]; BPTI 100 μM): 59.5% | lysate enzyme activity with BPTI [6]: 1.0893 | mean inhibition of lysate enzyme activity [7]: 44.6% | lysate enzyme activity in the presence of BPTI ([7]; lysate alone 1.893): 1.048 (Standard deviation 0.073) | effect on parasite morphology (microscopic observation) ([8]; 17 hours and thereafter after adding BPTI to the culture): Spherical forms are observed | mortality induced by BPTI (natural mortality subtracted) ([8]; BPTI 100 μM, 2.5×10^6 trypanosomes (5×10^6 parasites/ml)): 46% | mortality induced by BPTI (natural mortality subtracted) ([8]; BPTI 100 μM, 5×10^6 trypanosomes (10×10^6 parasites/ml)): 49.6% | mortality induced by BPTI (natural mortality subtracted) ([8]; BPTI 200 μM, 2.5×10^6 trypanosomes (5×10^6 parasites/ml)): 47.4% | mortality induced by BPTI (natural mortality subtracted) ([8]; BPTI 200 μM, 5×10^6 trypanosomes (10×10^6 parasites/ml)): 48.8% | increase of in vitro parasite mortality ([8]; summary statement referring to Example 2): 50%
